The values below come from ChEMBL document CHEMBL1128839, “Aminodiol HIV protease inhibitors. 2. 1,1-Dimethyl-2-hydroxyethyl carbamate derivatives with enhanced potency” (Bioorg Med Chem Lett, 1995).

Series [1] concerns CCRF-CEM. Briefly: Compound was evaluated for its ability to inhibit the replication of HIV-1 virus by 50% in cell culture using XTT endpoint. It is filed as functional. The note with it: Homo sapiens, read-out: ED50 (the source's name). (Tetrazolium dyes change colour on reduction, which living cells bring about.)
Series [2] deals with Human immunodeficiency virus type 1 protease (Human immunodeficiency virus 1, UniProt Q72874). Briefly: Inhibition of HIV protease cleavage of V-S-Q-N-(b-naphthylalanine)-P-I-V.
Series [3] deals with CCRF-CEM. As to the kind of experiment: Cytotoxicity against CEM cells. The series is classed as functional, Homo sapiens.
Series [4] in a line: Half-life period by analytical HPLC at pH 7.2. It is filed as ADME.
In series [5] the test system is CCRF-CEM. As to the kind of experiment: Compound was evaluated for its ability to inhibit the replication of HIV-2 virus (strain CBL-20) by 50% in cell culture using XTT endpoint. The note with it: Homo sapiens, read-out: ED50 (the source's name). It is filed as functional.

As a reminder, the IC50 is the concentration that inhibits the measured activity by half. On to `C[C@@H](O)C(C)(C)OC(=O)N[C@@H](Cc1ccccc1)[C@H](O)CNC[C@@H](O)[C@H](Cc1ccccc1)NC(=O)OC(C)(C)C`, for which, in series [1], the EC50 came to 320 nM. The compound further had a half-maximal inhibitory concentration (IC50) in series [2] of 160 nM. Besides, the Cytotoxicity in series [3] is more than 10 µM.

In series [2], `CC(C)(C)OC(=O)N[C@@H](Cc1ccccc1)[C@H](O)CNC[C@@H](O)[C@@H](N)Cc1ccccc1` displayed a half-maximal inhibitory concentration (IC50) of more than 10000 nM.

As for `CC(C)(C)OC(=O)N[C@@H](Cc1ccccc1)[C@H](O)CNC[C@@H](O)[C@H](Cc1ccccc1)NC(=O)OC(C)(C)CN`, the IC50 in series [2] is more than 10000 nM.

As usually defined, the half-life is the time in which the quantity being followed falls by half. Higher therefore signals slow decline. `CC(C)(C)OC(=O)N[C@@H](Cc1ccccc1)[C@H](O)CNC[C@@H](O)[C@H](Cc1ccccc1)NC(=O)OC(C)(CO)CO` came in with an IC50 in series [2] of 200 nM. In series [3], the Cytotoxicity was more than 10 µM. For the same compound, the half-life in series [4] is 18 h.

As for `CC(C)(C)OC(=O)N[C@@H](Cc1ccccc1)[C@H](O)CNC[C@@H](O)[C@H](Cc1ccccc1)NC(=O)OCCO`, the EC50 in series [1] was 280 nM. The midpoint of inhibition in series [2], the IC50, lay at 230 nM. Moreover, the Cytotoxicity in series [3] is more than 10 µM.

With `CC(C)(C)OC(=O)N[C@@H](Cc1ccccc1)[C@H](O)CNC[C@@H](O)[C@H](Cc1ccccc1)NC(=O)OC(C)(C)CO`, the results for the EC50 in series [1] and in series [5] were 38 nM and 103 nM, respectively. The IC50 in series [2] stood at 35 nM. Further, the Cytotoxicity entry in series [3] is “>=10000 nM”.

`C[C@H](O)C(C)(C)OC(=O)N[C@@H](Cc1ccccc1)[C@H](O)CNC[C@@H](O)[C@H](Cc1ccccc1)NC(=O)OC(C)(C)C`: the EC50 in series [1] was determined as 35 nM. This compound registered an IC50 in series [2] of 105 nM. Further, the Cytotoxicity in series [3] is more than 10 µM.

`COCC(C)(C)OC(=O)N[C@@H](Cc1ccccc1)[C@H](O)CNC[C@@H](O)[C@H](Cc1ccccc1)NC(=O)OC(C)(C)C`: the EC50 in series [1] stood at 1040 nM. 420 nM corresponded to half-maximal inhibition in series [2] (IC50). Moreover, the Cytotoxicity result in series [3] is “>=10000 nM”.

For the compound `CC(C)(C)OC(=O)N[C@@H](Cc1ccccc1)[C@H](O)CNC[C@@H](O)[C@H](Cc1ccccc1)NC(=O)OC(C)(C)CNC=O`, the EC50 in series [1] came to 610 nM. Also, it took 1500 nM to reach half-maximal inhibition in series [2] (IC50). Moreover, in series [3], the Cytotoxicity entry was “>=10000 nM”.

For `CC(C)(C)OC(=O)N[C@@H](Cc1ccccc1)[C@H](O)CNC[C@@H](O)[C@H](Cc1ccccc1)NC(=O)OC(C)(C)CCCO`, the EC50 in series [1] came to 650 nM. Further, in series [2], inhibition was half-maximal at 1100 nM (IC50). Besides, the Cytotoxicity result in series [3] is given as “>=10000 nM”.

For `CC(C)(C)OC(=O)N[C@@H](Cc1ccccc1)[C@H](O)CNC[C@@H](O)[C@H](Cc1ccccc1)NC(=O)OC(C)(C)CCO`, the EC50 in series [1] was 175 nM. The IC50 in series [2] was 200 nM. In addition, the Cytotoxicity entry in series [3] is given as “>=10000 nM”.

As to `CC(C)(CO)OC(=O)N[C@@H](Cc1ccccc1)[C@H](O)CNC[C@@H](O)[C@H](Cc1ccccc1)NC(=O)OC(C)(C)CO`, the EC50 in series [1] turned out to be 843 nM. This compound had an IC50 in series [2] of 16 nM. Further, the Cytotoxicity in series [3] was more than 10 µM.

Consider `CC(C)(C)OC(=O)N[C@@H](Cc1ccccc1)[C@H](O)CNC[C@@H](O)[C@H](Cc1ccccc1)NC(=O)OC1(CO)CCC1`, for which the EC50 in series [1] came to 155 nM. For the same compound, the IC50 in series [2] came out at 100 nM. This compound also yielded a Cytotoxicity in series [3] of more than 10 µM.

For the compound `CC(C)(C)OC(=O)N[C@@H](Cc1ccccc1)[C@H](O)CNC[C@@H](O)[C@H](Cc1ccccc1)NC(=O)OC(C)(C)C`, the EC50 in series [1] came to 80 nM. Further, the Cytotoxicity result in series [3] is on record as “>=10000 nM”.
